The text below walks through data of patent US5486469A, “Thermostable Fervidobacterium pullulanases” (Novo Nordisk A/S, priority 1991, dated 1996).

Read-outs that look alike come from different tables or passages of the source.

The target in this experiment is T1, Fervidobacterium sp. Ven 5, DSM 6204 pullulanase, purified native enzyme (Fervidobacterium pennivorans, UniProt Q9XDB5).
T1 construct: Ven 5; single SDS-PAGE band of 78 kDa; not the E. coli clone PL2125
T1 sequence (Q9XDB5 29-849): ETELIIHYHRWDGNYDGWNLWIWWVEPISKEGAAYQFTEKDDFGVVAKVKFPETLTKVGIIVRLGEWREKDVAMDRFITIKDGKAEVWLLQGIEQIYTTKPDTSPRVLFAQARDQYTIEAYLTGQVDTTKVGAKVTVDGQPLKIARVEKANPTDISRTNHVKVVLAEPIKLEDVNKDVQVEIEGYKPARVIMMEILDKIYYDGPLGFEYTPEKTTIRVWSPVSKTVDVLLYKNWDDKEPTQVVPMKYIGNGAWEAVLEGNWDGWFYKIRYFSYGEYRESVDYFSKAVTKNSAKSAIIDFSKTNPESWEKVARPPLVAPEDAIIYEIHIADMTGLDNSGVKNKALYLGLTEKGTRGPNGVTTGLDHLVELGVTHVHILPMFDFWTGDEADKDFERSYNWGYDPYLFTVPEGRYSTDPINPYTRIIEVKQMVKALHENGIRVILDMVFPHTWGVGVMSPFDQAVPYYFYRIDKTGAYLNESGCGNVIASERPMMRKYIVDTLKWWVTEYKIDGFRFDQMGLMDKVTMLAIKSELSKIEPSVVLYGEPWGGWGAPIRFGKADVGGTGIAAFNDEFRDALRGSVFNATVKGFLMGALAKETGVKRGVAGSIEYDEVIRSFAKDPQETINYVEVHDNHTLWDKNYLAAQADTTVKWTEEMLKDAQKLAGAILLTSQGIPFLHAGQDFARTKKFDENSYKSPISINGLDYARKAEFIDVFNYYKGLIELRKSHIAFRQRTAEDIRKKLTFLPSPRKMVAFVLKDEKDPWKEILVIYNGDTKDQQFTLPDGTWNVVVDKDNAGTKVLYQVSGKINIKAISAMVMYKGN
Description: Influence of cyclodextrins and EDTA on pullulytic activity (reducing sugars liberated from pullulan). The experiment is classed as biochemical. The following applies: for Influence on the pullulytic activity (in words): up to 5 mM. Here is the method: Pullulanase activity was measured by determining the amount of reducing sugars liberated during incubation with pullulan at 85° C. and pH 6.0. The activity of 1 U of pullulanase was defined as that amount of enzyme which liberates 1 μmol of reducing sugar per minute using maltose as a standard. The enzymatic reactions were conducted in 50 mM sodium-phosphate buffer, pH 6.0, the concentration of the substrate was 0.5% (w/v).
The reaction mixture was prepared by adding 50 μl enzyme solution to 200 μl substrate solution. The mixture was incubated at 85° C. for 5 minutes, cooled and diluted with 2.5 ml water. After incubation 250 μl dinitrosalicylic acid reagent (i.e. dinitrosalicylic acid 1 g, 2 N NaOh 20 ml, K-Na-tartrate×4 H2 O 30 g, and distilled water 100 ml) were added. The optical density was measured at 546 nm against a mixture which was not incubated.
6) Influence of metal ions,
The concentration of inhibitors was:
Metal ions and cyclodextrins
The purified pullulanase obtained according to Ex. 2 was subjected to characterization using the method for analyzing pullulanase activity described in Ex. 1.
To investigate the influence of metal ions, cyclodextrins and various glucose polymers on the activity of the pullulanase the purified enzyme was incubated with a 0.5% pullulan solution (pH 6.0) in the presence of up to 5 mM of metal ions and cyclodextrins. Amylose, starch, glycogen, pullulan and branched oligosaccharides were added in concentrations of up to 0.05%.

Setting [1] is: pH 6, read-out: Activity (%) of pullulanase in the presence of inhibitor.

Take `O=C(O)CN(CCN(CC(=O)O)CC(=O)O)CC(=O)O` [EDTA]: the inhibition at 5000 µM under setting [1] was found to be 100%. Also, the “Influence on the pullulytic activity (in words)” value (from here on “Influence”) (0.5% pullulan solution, pH 6.0) was “did not influence the pullulytic activity”.

In the case of `OCC1OC2OC3C(CO)OC(OC4C(CO)OC(OC5C(CO)OC(OC6C(CO)OC(OC7C(CO)OC(OC1C(O)C2O)C(O)C7O)C(O)C6O)C(O)C5O)C(O)C4O)C(O)C3O` (stereo not drawn) [α-Cyclodextrin], the inhibition at 5000 µM under setting [1] stood at 57%. Also, under “0.5% pullulan solution, pH 6.0”, the “Influence” value is listed as “decreased the activity of the enzyme slightly”.

For `OCC1OC2OC3C(CO)OC(OC4C(CO)OC(OC5C(CO)OC(OC6C(CO)OC(OC7C(CO)OC(OC8C(CO)OC(OC1C(O)C2O)C(O)C8O)C(O)C7O)C(O)C6O)C(O)C5O)C(O)C4O)C(O)C3O` (stereo not drawn) [β-Cyclodextrin], where the note is “5 mM inhibitor, 0.5% pullulan solution, pH 6.0, 1.0 U/ml pullulanase, no inhibitor = 100, read-out: Activity (%) of pullulanase in the presence of inhibitor”, the inhibition at 5000 µM was 4%. The “Influence” value (0.5% pullulan solution, pH 6.0) was “inhibited completely”.
